Source: EP0433759A1, “4-Substituted alkyl carbapenem antibiotics” (Bristol-Myers Squibb Company, priority 1989, dated 1991)
In brackets after ≈: the same amount, converted by molar mass. Structures can show the parent of a compound that is named as a salt. Where two headings read alike, the source gives them in different places.

Columns and labels:
[1] = Chemical stability in aqueous solution (half-life); assay type: physicochemical; details: 37°C, 10^-4 M, pH 7.4, aqueous solution; read-out: Half-life (T 1/2) (converted)
Protocol: These values were determined by the method of Woodward et al, J. Am. Chem. Soc., 102, 2042 (1980)

Escherichia coli, A15119 = test: In vitro antibacterial activity (MIC), serial 2-fold dilution; assay type: cell-based; details: read-out: Antibacterial Activity MIC E. coli
Protocol: (§1) In vitro antibacterial activity was determined by serial 2-fold dilution of the compound in Mueller-Hinton agar and inoculation of the agar surface or broth with an appropriately diluted 18-24 h broth culture.

[2] = tested on: Streptococcus pneumoniae, A9585; test: as above; assay type: cell-based; details: read-out: Antibacterial Activity MIC S. pn.
Protocol: as §1

[3] = tested on: Pseudomonas aeruginosa, A9843; test: as above; assay type: cell-based; details: read-out: Antibacterial Activity MIC P. aer.
Protocol: as §1

[4] = Escherichia coli A15119, Mueller-Hinton, 37°C, 17 h
[5] = Streptococcus pneumoniae A9585, Mueller-Hinton, 37°C, 17 h
[6] = Pseudomonas aeruginosa A9843, Mueller-Hinton, 37°C, 17 h

SMILES: C[C@@H](O)[C@H]1C(=O)N2C(C(=O)O)=C(SCCC#N)[C@H](CCN3CCOCC3)[C@H]12 [Example 49, (4R,5S,6S)-3-[(2-Cyanoethyl)thio]-6-[(1'R)-1'-hydroxyethyl]--4-[2"-(N-morpholino)ethyl]-7-oxo-1-azabicyclo-[3.2.0]hept-2-ene-2-carboxylic acid]
- half-life at 100 µM [1]: 33.5 h
- MIC (Escherichia coli, A15119; [4]): 0.03 µg/mL (≈ 0.0759 µM)
- MIC [2, 5]: 0.008 µg/mL (≈ 0.0202 µM)
- MIC [3, 6]: 63 µg/mL (≈ 159 µM)

SMILES: CSC1=C(C(=O)O)N2C(=O)[C@H]([C@@H](C)O)[C@H]2[C@H]1CCCCN [Example 92, (4R,5S,6S)-4-(4"-Aminobutyl)-6-(1'R)-1'-hydroxyethyl-3-methylthio-7-oxo-1-azabicyclo[3.2.0]hept-2-ene-2-carboxylic acid]
- half-life at 100 µM [1]: 247 h
- MIC (Escherichia coli, A15119; [4]): 0.06 µg/mL (≈ 0.191 µM)
- MIC [2, 5]: 2 µg/mL (≈ 6.36 µM)
- MIC [3, 6]: 2 µg/mL (≈ 6.36 µM)

SMILES: C[C@@H](O)[C@H]1C(=O)N2C(C(=O)O)=C(SCC(=N)N(C)C)[C@H](CCCN)[C@H]12 [Example 130, (4R,5S,6S)-4-(3"-Aminopropyl)-3-[(N,N-dimethylamidinomethyl]thio]-6-[(1'R)-1'-hyroxyethyl]-7-oxo-1-azabicyclo[3.2.0]hept-2-ene-2-carboxylic acid, acetic acid salt]
- half-life at 100 µM [1]: 16 h
- MIC (Escherichia coli, A15119; [4]): 0.13 µg/mL
- MIC [2, 5]: 0.13 µg/mL
- MIC [3, 6]: 0.06 µg/mL

SMILES: C[C@@H](O)[C@H]1C(=O)N2C(C(=O)O)=C(SCCC#N)[C@H](CCCCNC=N)[C@H]12 [Example 19, (4R,5S,6S)-3-[(2-Cyanoethyl)thio]-4-[4"-(N-formimidoyl)-amino-butyl]-6-[(1'R)-1'-hydroxyethyl]-7-oxo-1 - azabicyclo-[3.2.0]hept-2-ene-2-carboxylic acid]
- half-life at 100 µM [1]: 117 h
- MIC (Escherichia coli, A15119; [4]): 0.004 µg/mL (≈ 0.0105 µM)
- MIC [2, 5]: 0.06 µg/mL (≈ 0.158 µM)
- MIC [3, 6]: 1 µg/mL (≈ 2.63 µM)

SMILES: C[C@@H](O)[C@H]1C(=O)N2C(C(=O)O)=C(SCCO)[C@H](CCCCN(C)C)[C@H]12 [Example 91, (4R,5S,6S)-4-(4"-N,N-Dimethylaminobutyl)-6-[(1'R)-1'-hydroxyethyl]-3-[(2-hydroxyethyl)thio]-7-oxo-1-azabicyclo-[3.2.0]hept-2-ene-2-carboxylic acid]
- half-life at 100 µM [1]: 150 h
- MIC (Escherichia coli, A15119; [4]): 0.016 µg/mL (≈ 0.043 µM)
- MIC [2, 5]: 0.5 µg/mL (≈ 1.34 µM)
- MIC [3, 6]: 4 µg/mL (≈ 10.7 µM)

SMILES: C[C@@H](O)[C@H]1C(=O)N2C(C(=O)O)=C(SCCN3CCCC3)[C@H](CCCN)[C@H]12 [Example 120, (4R,5S,6S)-4-(3"-Aminopropyl)-6-[(1'R)-1'-hydroxyethyl]-3-[2-(1-pyrrolidinyl)ethylthio]-7-oxo-1-azabicyclo-[3.2.0]-hept-2-ene-2-carboxylic acid, acetic acid salt]
- half-life at 100 µM [1]: 23 h
- MIC (Escherichia coli, A15119; [4]): 0.13 µg/mL
- MIC [2, 5]: 0.03 µg/mL
- MIC [3, 6]: 0.25 µg/mL

SMILES: C[C@H](N)C(=O)N[C@@H](C)C(=O)NCC[C@H]1C(SCCC#N)=C(C(=O)O)N2C(=O)[C@H]([C@@H](C)O)[C@@H]12 [Example 146, (4R,5S,6S)-6-[(1'R)-1'-Hydroxyethyl]-3-[(2-cyanoethyl)-thio]-4-[2"-(L-alanyl-L-alanyl)-aminoethyl]-7-oxo-1-azabicyclo-[3.2.0]hept-2-ene-2-carboxylic acid]
- MIC (Escherichia coli, A15119; [4]): 0.125 µg/mL (≈ 0.267 µM)
- MIC [2, 5]: 0.25 µg/mL (≈ 0.535 µM)
- MIC [3, 6]: 128 µg/mL (≈ 274 µM)

SMILES: C[C@@H](O)[C@H]1C(=O)N2C(C(=O)O)=C(SCCN=CN)C[C@H]12 [Imipenem, imipenem, reference compound]
- MIC (Escherichia coli, A15119; Escherichia coli, A15119, 17 h): 0.03 µg/mL (≈ 0.1 µM)
- MIC ([2]; Streptococcus pneumoniae, A9585, 17 h): 0.002 µg/mL (≈ 0.00668 µM)
- MIC ([3]; Pseudomonas aeruginosa, A9843, 17 h): 2 µg/mL (≈ 6.68 µM)

SMILES: C[C@H](N)C(=O)NCC[C@H]1C(SCCC#N)=C(C(=O)O)N2C(=O)[C@H]([C@@H](C)O)[C@@H]12 [Example 145, (4R,5S,6S)-6-[(\1'R)-1'-Hydroxyethyl]-3-[(2-cyanoethyl)-thio]-4-[2"-(L-alanyl)-aminoethyl]-7-oxo-1-azabicyclo-[3.2.0]hept-2-ene-2-carboxylic acid]
- MIC (Escherichia coli, A15119; [4]): 0.125 µg/mL (≈ 0.315 µM)
- MIC [2, 5]: 0.125 µg/mL (≈ 0.315 µM)
- MIC [3, 6]: 8 µg/mL (≈ 20.2 µM)
